Several values for one entry are separate records, joined by “and”; a condition that tells them apart may be missing. Equal entries are not always repeated.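 Grown in 96-well plates, cells were treated for 48 hours with each compound at five concentrations. Insufficient inhibition: endpoint recorded as highest concentration tested. Abbreviation: GI50, concentration required for 50% inhibition of growth. TGI denotes the concentration required for complete inhibition of growth.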 Where a SMILES comes first, the peptide text is derived from it. [ ]: non-standard residue; d: D form. The star is where a group is joined. Bn2Val = CC(C)[C@@H](C(=O)*)N(Cc1ccccc1)Cc1ccccc1; NH(3,4-diMeO-benzyl) = COc1ccc(CN*)cc1OC; NMeV = CN[C@H](C(=O)O)C(C)C; dNMeA = CN[C@H](C)C(=O)O
Assays:
Experiment in all cases: NCI anticancer screen, dose series, 48 h
[1] = tested on: SNB-19 CNS
[2] = tested on: DU-145 prostate
[3] = tested on: MCF7 breast
[4] = tested on: HOP-62 NSCLC
[5] = tested on: HCT-15 colon
[6] = tested on: MOLT-4 leukemia
[7] = tested on: RXF 393 renal
[8] = tested on: NCI-H23 lung
[9] = tested on: U251 CNS
[10] = tested on: A549 NSCLC

| SMILES | TGI [1] | TGI [2] | TGI [3] | TGI [4] | TGI [5] | TGI [6] | TGI [7] | TGI [8] | TGI [9] | TGI [10] | GI50 [1] | GI50 [2] [µM] | GI50 [3] [µM] | GI50 [4] [µM] | GI50 [5] [µM] | GI50 [6] [µM] | GI50 [7] [µM] | GI50 [8] | GI50 [9] [µM] | GI50 [10] [µM] |
| --- | --- | --- | --- | --- | --- | --- | --- | --- | --- | --- | --- | --- | --- | --- | --- | --- | --- | --- | --- | --- |
| COc1cc2c(NCCCCCCO[N+](=O)[O-])ncnc2c(OC)c1OC | > 100 µM | 72.2 µM | 71.4 µM | 66.7 µM | 72.7 µM | > 61.9 µM | 75.2 µM | 59.6 µM | > 100 µM | > 95.7 µM | – | – | – | – | – | – | – | – | – | – |
| NS(=O)(=O)c1ccc(-n2nc(-c3ccc(Br)cc3)ccc2=O)cc1 | > 10 µM | > 10 µM | > 10 µM | > 10 µM | > 10 µM | > 10 µM | > 10 µM | > 10 µM | > 10 µM | > 10 µM | > 10 µM | > 10 | > 10 | > 10 | > 10 | > 10 | > 10 | > 10 µM | > 10 | > 10 |
| COc1ccccc1NC(=O)c1ccc(/C=C/C(=O)c2nccn2C)cc1 | 1.59 µM | 1.09 µM | 0.977 µM | 2.37 µM | 0.843 µM | 2.22 µM | 0.857 µM | 1.5 µM | 1.02 µM | 8.75 µM | 0.553 µM | 0.504 | 0.404 | 0.762 | 0.363 | 0.711 | 0.42 | 0.561 µM | 0.434 | 0.74 |
| CN1CCN(Cc2ccc(NC(=O)c3cncc(C#Cc4cnc(N)c5ccccc45)c3)cc2C(F)(F)F)CC1 | 1.22 µM | 0.678 µM | 0.892 µM | 1.25 µM | 0.534 µM | 1.16 µM | 0.563 µM | 0.963 µM | 0.763 µM | 0.93 µM | 0.563 µM | 0.213 | 0.371 | 0.324 | 0.124 | 0.164 | 0.163 | 0.41 µM | 0.279 | 0.342 |
| CNC(=O)c1cc(Oc2ccc3c(c2)sc2nc(-c4ccc(N)cc4)cn23)ccn1 | > 100 µM | > 100 µM | > 100 µM | > 100 µM | > 100 µM | > 60.8 µM | > 100 µM | > 100 µM | > 100 µM | > 100 µM | 0.405 µM | 0.344 | 0.128 | 0.346 | 0.122 | 0.26 | 0.297 | 0.491 µM | 0.194 | 0.474 |
| COc1nc2c(cc1S(=O)(=O)c1ccccc1)CCc1c-2cnn1-c1ccccc1Cl | > 100 µM | > 100 µM | > 100 µM | > 100 µM | > 100 µM | > 100 µM | > 100 µM | – | > 100 µM | > 100 µM | 7.25 µM | > 100 | 4.13 | > 100 | 6.24 | 4.76 | 6.74 | – | 5.94 | 4.97 |
| COc1ccc(CN2CCCC(C(=O)c3ccc(C(F)(F)F)cc3)C2)c(O)c1 (stereo unspecified) | > 100 µM | > 100 µM | 54.7 µM | > 100 µM | 36 µM | > 100 µM | 71.9 µM | > 100 µM | > 100 µM | > 100 µM | 26.3 µM | 53.9 | 18 | 29.1 | 14.6 | 27.5 | 16.9 | 28.5 µM | 26 | 36.4 |
| COC(=O)[C@@H](C)C[C@H](Cc1ccccc1)NC(=O)c1nc([C@@H](C[C@H](C(C)C)N(C)C(=O)[C@@H](NC(=O)[C@H]2CCCN2C)C(C)C)OC(C)=O)sc1C | > 25 µM | > 25 µM | > 25 µM | > 25 µM | > 25 µM | > 25 µM | > 25 µM | > 25 µM | > 25 µM | > 25 µM | < 0.0025 µM | < 0.0025 | < 0.0025 | 0.00618 | 0.0119 | 0.00278 | < 0.0025 | 0.00806 µM | 0.00347 | 0.0207 |
| CCCNC(=O)OCc1c(COC(=O)NCCC)c(-c2ccc(Cl)c(Cl)c2)n2c1CCC2 | 39.1 µM | > 100 µM | 19.8 µM | 22.3 µM | 19.8 µM | 87.7 µM | 9.35 µM | 26.5 µM | 28.9 µM | 33.2 µM | – | – | – | – | – | – | – | – | – | – |
| CCN1CCN(c2nc(NCCNc3ccnc4cc(Cl)ccc34)c3ccccc3n2)CC1 | 14 µM | 9.14 µM | 11 µM | 6.43 µM | 5.25 µM | 7.17 µM | 2.77 µM | 10.7 µM | 10.1 µM | 8.48 µM | 1.99 µM | 2.17 | 1.11 | 1.95 | 1.52 | 2.13 | 1.26 | 2.77 µM | 2.28 | 2.21 |
| O=C1c2ccccc2C(=O)c2c1ccc1[nH]c(CCl)nc21 | 13.6 µM | 14.5 µM | 4.2 µM | 9.42 µM | 3.1 µM | 8.04 µM | 6.17 µM | 3.6 µM | 6.56 µM | 10.2 µM | 3.52 µM | 4.27 | 1.75 | 3.12 | 1.45 | 1.68 | 1.86 | 1.65 µM | 2.21 | 2.81 |
| CN(C)c1ccc(/C=C2\C[N+](C)(C)C/C(=C\c3ccc(N(C)C)cc3)C2=O)cc1 | 45.4 µM | > 100 µM | 30.5 µM | > 96.7 µM | > 100 µM | 59.3 µM | > 77.7 µM | 54.4 µM | 25 µM | > 100 µM | – | – | – | – | – | – | – | – | – | – |
| COc1ccc(CNC(=O)[C@@H](C)N(C)C(=O)[C@@H]2CCCN2C(=O)[C@H](C(C)C)N(C)C(=O)[C@@H](NC(=O)[C@H](C(C)C)N(Cc2ccccc2)Cc2ccccc2)C(C)C)cc1OC (Bn2Val-V[NMeV]P[dNMeA]-{NH(3,4-diMeO-benzyl)}) | 23.9 µM and > 100 µM | 50 µM and 42.3 µM | 25.3 µM | 16.5 µM and 33.4 µM | 21.5 µM and 28.8 µM | 23.9 µM and 11.7 µM | 12.8 µM and 15 µM | 26.6 µM and 42.4 µM | 22.1 µM and 20 µM | 50 µM and > 100 µM | > 100 µM | – | – | 14.7 | 5.98 | 0.475 | 3.61 | – | – | 53.3 |
| COc1ccc(CNC(=O)COc2ccc(/C=N/Nc3nc4ccccc4s3)cc2)cc1 | 12.6 µM | > 100 µM | 27.5 µM | 11.6 µM | > 100 µM | > 100 µM | 3.76 µM | 12.6 µM | 5.43 µM | 87.6 µM | 2.69 µM | 3.8 | 3.52 | 2.22 | 3.44 | > 100 | 1.75 | 3.05 µM | 1.73 | 3.12 |
| C[C@@H]1Cc2c([nH]c3ccccc23)[C@@H](c2c(F)cc(/C=C/C(=O)O)cc2F)N1CC(C)(C)F | 32.3 µM | > 62.3 µM | 25.6 µM | 31.7 µM | 24.3 µM | 34.9 µM | 26.2 µM | 33.8 µM | 25 µM | 26.6 µM | 13.7 µM | 19.1 | – | 15.5 | 8.14 | 11.2 | 11.7 | 11.2 µM | 10.5 | 11.6 |
| CN(C)c1ccc2c(c1)oc(=O)c1ccccc12 | 28.3 µM | 23 µM | 17.1 µM | 65.6 µM | 27 µM | 73.3 µM | 19.3 µM | 22.4 µM | 24.3 µM | 34.6 µM | – | – | – | – | – | – | – | – | – | – |
| O=c1c(Cl)c(Cl)cnn1-c1ccccc1 | 13.7 µM and > 41.7 µM | 28 µM and 27.8 µM | 18.9 µM and 13.6 µM | 16.7 µM and 32.1 µM | 3.51 µM and 5.38 µM | 7.19 µM and 4.14 µM | 4.21 µM and 5.38 µM | 5.68 µM and 13.3 µM | 3.37 µM and 7.42 µM | 26.9 µM and 37.6 µM | 4.93 µM and > 23.2 µM | – | – | – | – | – | – | 2.04 µM and 5.73 µM | – | – |
| NNC(=O)c1cnn(-c2ccnc3c(C(F)(F)F)cccc23)c1N | > 100 µM | > 100 µM | > 100 µM | > 100 µM | > 100 µM | > 100 µM | > 100 µM | > 100 µM | > 100 µM | > 100 µM | > 100 µM | > 100 | > 100 | > 100 | > 100 | > 100 | > 100 | > 100 µM | > 100 | > 100 |
| ClCc1ccccc1CSc1ncnc2nc[nH]c12 | > 60 µM | > 60 µM | > 60 µM | > 60 µM | > 60 µM | > 60 µM | > 60 µM | > 60 µM | > 60 µM | – | > 60 µM | > 60 | 53 | > 60 | > 60 | > 60 | > 60 | > 60 µM | > 60 | – |
| COc1cccc(-c2nn(-c3ccccc3)cc2-c2ccnc(NCCCNS(=O)(=O)c3cccc(F)c3)c2)c1 | – | > 100 µM | > 100 µM | > 100 µM | > 100 µM | 8 µM | > 100 µM | > 100 µM | > 100 µM | > 100 µM | – | 6.33 | 3.21 | 10.4 | 2.89 | 2.64 | 4.18 | 4.47 µM | 4.83 | 6.34 |

Source: PubChem BioAssay (NCI)
